# Read-outs that look alike come from different tables or passages of the source. Peptide text beside a SMILES is read from it.
# T1: hPEPT1 (Homo sapiens, UniProt P46059)
# T1 construct: expressed in transfected cells; host or cells: Xenopus laevis oocytes (30 ng cRNA per oocyte)
# T1 sequence (P46059 1-708): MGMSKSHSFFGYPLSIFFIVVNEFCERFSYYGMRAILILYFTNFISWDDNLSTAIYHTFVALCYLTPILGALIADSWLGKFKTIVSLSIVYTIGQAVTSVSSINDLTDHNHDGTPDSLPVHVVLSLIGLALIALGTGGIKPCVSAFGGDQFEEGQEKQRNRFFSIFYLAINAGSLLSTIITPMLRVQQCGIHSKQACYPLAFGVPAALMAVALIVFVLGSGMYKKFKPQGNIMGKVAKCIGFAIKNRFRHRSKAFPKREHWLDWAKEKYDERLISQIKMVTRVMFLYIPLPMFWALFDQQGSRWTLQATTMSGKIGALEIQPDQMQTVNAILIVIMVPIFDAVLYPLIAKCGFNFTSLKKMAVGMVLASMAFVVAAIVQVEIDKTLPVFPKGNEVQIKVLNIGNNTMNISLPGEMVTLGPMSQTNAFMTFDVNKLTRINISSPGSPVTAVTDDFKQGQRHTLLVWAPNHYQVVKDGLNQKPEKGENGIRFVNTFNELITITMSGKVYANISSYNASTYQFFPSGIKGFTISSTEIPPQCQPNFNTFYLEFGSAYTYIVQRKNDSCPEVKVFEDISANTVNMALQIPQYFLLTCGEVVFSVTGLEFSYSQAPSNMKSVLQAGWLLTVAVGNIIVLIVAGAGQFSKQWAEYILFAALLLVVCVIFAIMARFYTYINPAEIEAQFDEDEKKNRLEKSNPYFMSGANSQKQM
# T2: rbSGLT1 (Oryctolagus cuniculus, UniProt P11170)
# T2 construct: expressed in transfected cells; host or cells: Xenopus laevis oocytes (cRNA injection)
# T2 sequence (P11170 1-662): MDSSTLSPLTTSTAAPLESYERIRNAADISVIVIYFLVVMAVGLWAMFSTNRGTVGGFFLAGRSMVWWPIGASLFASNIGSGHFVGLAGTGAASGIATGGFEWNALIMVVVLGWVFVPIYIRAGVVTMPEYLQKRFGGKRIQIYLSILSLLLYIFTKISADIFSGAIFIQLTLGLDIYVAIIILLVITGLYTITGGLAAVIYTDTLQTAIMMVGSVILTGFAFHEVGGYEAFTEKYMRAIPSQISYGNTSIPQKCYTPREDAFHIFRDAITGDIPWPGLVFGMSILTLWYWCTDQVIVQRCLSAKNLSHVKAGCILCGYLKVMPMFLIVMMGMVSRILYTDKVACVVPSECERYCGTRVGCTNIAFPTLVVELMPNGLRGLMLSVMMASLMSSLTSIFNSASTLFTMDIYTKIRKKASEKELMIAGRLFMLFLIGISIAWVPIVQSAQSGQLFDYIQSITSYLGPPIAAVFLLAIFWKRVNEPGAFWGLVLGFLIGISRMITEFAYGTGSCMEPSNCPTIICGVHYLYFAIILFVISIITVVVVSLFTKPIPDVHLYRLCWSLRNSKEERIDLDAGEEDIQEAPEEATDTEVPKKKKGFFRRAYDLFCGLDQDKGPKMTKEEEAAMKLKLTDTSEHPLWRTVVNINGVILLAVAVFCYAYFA
# T3: hSGLT1 (Homo sapiens, UniProt P13866)
# T3 construct: expressed in transfected cells; host or cells: Xenopus laevis oocytes (cRNA injection)
# T3 sequence (P13866 1-664): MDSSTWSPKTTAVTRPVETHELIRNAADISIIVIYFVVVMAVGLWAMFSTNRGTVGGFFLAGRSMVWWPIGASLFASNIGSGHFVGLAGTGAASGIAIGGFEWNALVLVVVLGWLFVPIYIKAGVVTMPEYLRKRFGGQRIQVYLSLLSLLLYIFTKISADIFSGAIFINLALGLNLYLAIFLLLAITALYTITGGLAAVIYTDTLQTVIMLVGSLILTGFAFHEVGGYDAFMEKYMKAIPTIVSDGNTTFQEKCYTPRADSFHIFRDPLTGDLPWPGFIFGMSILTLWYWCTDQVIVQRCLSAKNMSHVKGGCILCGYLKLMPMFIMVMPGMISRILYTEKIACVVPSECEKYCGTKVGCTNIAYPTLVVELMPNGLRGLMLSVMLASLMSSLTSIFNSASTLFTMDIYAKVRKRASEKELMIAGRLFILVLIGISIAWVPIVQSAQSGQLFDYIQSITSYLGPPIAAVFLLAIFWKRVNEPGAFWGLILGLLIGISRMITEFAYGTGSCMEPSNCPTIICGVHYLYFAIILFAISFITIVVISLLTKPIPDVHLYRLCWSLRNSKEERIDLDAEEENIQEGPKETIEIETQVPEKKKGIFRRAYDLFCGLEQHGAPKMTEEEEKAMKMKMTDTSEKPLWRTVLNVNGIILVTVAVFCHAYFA
# T4: human organic cation transporter 1 (hOCT1) (Homo sapiens, UniProt O15245)
# T4 construct: expressed in transfected cells; host or cells: oocytes
# T4 sequence (O15245 1-554): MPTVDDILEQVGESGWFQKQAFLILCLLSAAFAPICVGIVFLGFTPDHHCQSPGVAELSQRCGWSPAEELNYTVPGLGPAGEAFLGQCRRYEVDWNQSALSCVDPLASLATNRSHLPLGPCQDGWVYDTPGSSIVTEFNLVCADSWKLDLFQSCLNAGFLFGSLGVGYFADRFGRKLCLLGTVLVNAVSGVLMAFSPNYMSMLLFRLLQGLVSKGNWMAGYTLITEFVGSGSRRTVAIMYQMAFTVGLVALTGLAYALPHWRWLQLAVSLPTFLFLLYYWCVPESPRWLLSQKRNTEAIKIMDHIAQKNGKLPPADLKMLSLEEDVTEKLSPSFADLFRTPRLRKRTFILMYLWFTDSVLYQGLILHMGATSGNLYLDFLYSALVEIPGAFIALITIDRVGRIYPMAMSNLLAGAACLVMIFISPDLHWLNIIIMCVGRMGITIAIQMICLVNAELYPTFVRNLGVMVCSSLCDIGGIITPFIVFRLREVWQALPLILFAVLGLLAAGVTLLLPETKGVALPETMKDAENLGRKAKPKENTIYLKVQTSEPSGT
# B1: hRS1 protein: purified human regulatory protein RS1 with six C-terminal histidines, SEQ ID NO: 2 (protein, listed as Homo sapiens)
# chain: MSSLPTSDGFNHPARSSGQSPDVGNPMSLARSVSASVCPIKPSDSDRIEPKAVKALKASAEFQLNSEKKEHLSLQDLSDHASSADHAPTDQSPAMPMQNSSEEITVAGNLEKSAERSTQGLKFHLHTRQEASLSVTSTRMHEPQMFLGEKDWHPENQNLSQVSDPQQHEEPGNEQYEVAQQKASHDQEYLCNIGDLELPEERQQNQHKIVDLEATMKGNGLPQNVDPPSAKKSIPSSECSGCSNSETFMEIDTAQQSLVTLLNSTGRQNANVKNIGALDLTLDNPLMEVETSKCNPSSEILNDSISTQDLQPPETNVEIPGTNKEYGHYSSPSLCGSCQPSVESAEESCPSITAALKELHELLVVSSKPASENTSEEVICQSETIAEGQTSIKDLSERWTQNEHLTQNEQCPQVSFHQAISVSVETEKLTGTSSDTGREAVENVNFRSLGDGLSTDKEGVPKSRESINKNRSVTVTSAKTSNQLHCTLGVEISPKLLAGEEDALNQTSEQTKSLSSNFILVKDLGQGIQNSVTDRPETRENVCPDASRPLLEYEPPTSHPSSSPAILPPLIFPATDIDRILRAGFTLQEALGALHRVGGNADLALLVLLAKNIVVPT
# modifications: C-terminal His6 tag
# Assays:
# hPEPT1 = target: T1, hPEPT1; experiment: Electrogenic peptide transport by hPEPT1 in oocytes, two-electrode voltage clamp; type: cell-based; details: 5 mM peptide
# Protocol: (§1) The oocytes were incubated for three days at 16° C. in ORi buffer (in mM: 5 HEPES-Tris, pH 7.4, 100 NaCl, 3 KCl, 2 CaCl2, and 1 MgCl2). […] The oocytes were superfused with Ori buffer titrated to pH 6.5, the membrane potential of the oocytes was clamped to −40 mV, and inward current induced by superfusion with Ori buffer (pH 6.5) containing 5 mM of a control dipeptide or 5 mM of the tested tripeptide was measured. • (D) Expression and Purification of hRS1
# RS1 = experiment: Immunostaining of RS1 at the TGN in LLC-PK1 cells after brefeldin A; type: cell-based; details: 2 μg/ml brefeldin A, 1 or 5 min, subconfluent LLC-PK1 cells
# Protocol: For immunostaining, LLC-PK1 cells were grown on coverslips to about 50% confluence. The cells were washed twice with washing buffer (5 mM 3-(N-morpholino)propanesulfonic acid-NaOH, pH 7.4, 100 mM NaCl, 3 mM KCl, 2 mM CaCl2, and 1 mM MgCl2), fixed for 12 min with 4% (w/v) paraformaldehyde diluted in washing buffer, and washed twice again. Free aldehyde groups were quenched by 10 min incubation with washing buffer containing 40 mM glycine. For immunoreactions, washed cells were permeabilized by a 10-min incubation with washing buffer containing 0.25% (w/v) TritonX-114, and incubated over night at 4° C. with primary antibodies diluted in washing buffer. The dilutions of primary antibodies were as follows: rabbit-anti-RS1-Ab 1:50 (Valentin (2000), Biochim. Biophys. Acta, 1468, 367-380); QIS30 directed against SGLT1 1:400 (Kipp (2003), Am. J. Physiol., 285, C737-C749), sheep-anti-TGN46 1:125 (from Diagnostic International, Schriesheim, Germany). […]
# The specificity of the antibodies was controlled as follows. […] In controls, no cross-reactivity of the used secondary antibodies with false primary antibodies used in the same experiment was detected. […]
# rbSGLT1 = target: T2, rbSGLT1; experiment: rbSGLT1 expressed [14C]AMG uptake in oocytes after peptide injection; type: cell-based, rabbit; details: 50 nl containing 3 mM of each peptide, 30 min, 50 μM [14C]AMG; compared with hSGLT1
# Protocol: as §1
# To develop drugs on the basis of the identified peptides animal models are required.
# hSGLT1 = target: T3, hSGLT1; experiment: hSGLT1 expressed [14C]AMG uptake in Xenopus oocytes after injection of hRS1 protein or peptides; type: cell-based
# [1] = target: T4, human organic cation transporter 1 (hOCT1); experiment: [14C]TEA uptake expressed by hOCT1 in oocytes; type: cell-based; details: intracellular AMG concentration of 0.1 mM
# Protocol: Corresponding measurements were performed in the presence of intracellular AMG concentrations of 0.1 mM, <0.01 mM or 10 mM.
molecule,measurement,setting,value
"NCC(=O)N[C@@H](CCC(N)=O)C(=O)O [GC, glycylglutamine, reference compound] (H-Gly-Gln-OH)",inward current induced in oocytes expressing hPEPT1,"hPEPT1; pH 6.5, clamped to −40 mV",significant inward currents
same,inward current in control oocytes not injected with hPEP1-cRNA,"hPEPT1; pH 6.5, data not shown",no inward currents
C[C@H]1CCC/C=C/[C@@H]2C[C@H](O)C[C@H]2[C@H](O)/C=C/C(=O)O1 [brefeldin A],RS1 immunoreactivity at the TGN / perinuclear compartment,RS1,released from the TGN
IKPSDSDRIEP [Isoleucine-Lysine-Proline-Serine-Aspartic acid-Serine-Aspartic acid -Arginine-Isoleucine-Glutamic acid-Proline],effect on glucose uptake expressed by rbSGLT1,rbSGLT1,same effect
same,inhibition of glucose uptake expressed by hSGLT1,hSGLT1,about 50%
SDSDRIEP [Serine-Aspartic acid-Serine-Aspartic acid-Arginine-Isoleucine-Glutamic acid-Proline],inhibition of glucose uptake expressed by hSGLT1,hSGLT1,about 50%
same,inhibition of hSGLT1 expressed AMG uptake after stimulation of protein kinase C,hSGLT1,not changed
same,inhibition of hSGLT1 expressed AMG uptake with coexpressed dominant negative mutant of dynamin I,hSGLT1,not changed
same,inhibitory effect on expression of hSGLT1 when the exocytotic pathway is blocked,hSGLT1,could be prevented
SVQPCQENQ [reference compound],inhibition of [14C]AMG uptake by injected peptide,"hSGLT1; 50 nl/oocyte containing 1.5 mM peptide, 30 min before uptake",No inhibition
B1,inhibitory effect on expression of hSGLT1 when the exocytotic pathway is blocked,hSGLT1,could be prevented
same,inhibition of AMG uptake by injected hRS1 protein in the presence of BTXB,"hSGLT1; 5 ng hRS1 plus 1.7 ng BTXB, 30 min",no inhibition
same,inhibition of hSGLT1 expressed AMG uptake after stimulation of protein kinase C,hSGLT1; PKC stimulated with DOG or PMA,increased
same,inhibition of hSGLT1 expressed AMG uptake with coexpressed dominant negative mutant of dynamin I,hSGLT1; dominant negative dynamin I coexpressed,reduced
same,inhibition of hSGLT1 expressed AMG uptake when endocytosis is inhibited,"hSGLT1; with clorpromazin, imipramin or filipin, data not shown",unchanged
same,hOCT1 expressed [14C]TEA uptake after injection,[1],appears to be inhibited

# From patent publication US9155778B2, “Tripeptides that down regulate the activity of plasma membrane transporters including sodium-D-glucose cotransporter SgIt1” (JULIUS-MAXMILLIANS-UNIVERSITAT WURZBURG, priority 2005, dated 2015)
